Reference: the NIST ThermoML archive (doi:10.1021/je100774p)

Assay: mn = molality of the nth substance listed, in mol/kg
Settings: 101 kPa, Liquid; for viscosity: Capillary tube (Ostwald / Ubbelohde) method

O=C(O)c1cccnc1 [3-carboxylpyridine] + O
Settings | mass density, 293.15 K [kg/m3] | mass density, 298.15 K [kg/m3] | mass density, 303.15 K [kg/m3] | mass density, 308.15 K [kg/m3] | mass density, 313.15 K [kg/m3] | viscosity, 293.15 K [mPa·s] | viscosity, 298.15 K [mPa·s] | viscosity, 303.15 K [mPa·s] | viscosity, 308.15 K [mPa·s] | viscosity, 313.15 K [mPa·s]
m1 = 0.004283 | 998.41 | 997.22 | 995.82 | 994.28 | 992.41 | 1.004 | 0.8912 | 0.7981 | 0.7201 | 0.6538
m1 = 0.006512 | 998.5 | 997.3 | 995.95 | 994.35 | 992.59 | 1.005 | 0.8917 | 0.7985 | 0.7205 | 0.6543
m1 = 0.008188 | – | – | – | – | – | 1.006 | 0.8923 | 0.7989 | 0.7211 | 0.6547
m1 = 0.00819 | 998.57 | 997.41 | 996.01 | 994.4 | 992.64 | – | – | – | – | –
m1 = 0.01628 | 998.83 | 997.73 | 996.31 | 994.75 | 992.98 | 1.007 | 0.8941 | 0.8005 | 0.7224 | 0.6561
m1 = 0.03262 | 999.56 | 998.36 | 996.97 | 995.44 | 993.51 | 1.011 | 0.8978 | 0.8035 | 0.7254 | 0.6588
m1 = 0.04903 | 1000.25 | 999.09 | 997.72 | 996.14 | 994.22 | 1.015 | 0.9012 | 0.8067 | 0.7282 | 0.661
m1 = 0.06555 | 1000.89 | 999.71 | 998.32 | 996.72 | 994.91 | 1.018 | 0.9039 | 0.8098 | 0.7312 | 0.6639
m1 = 0.0821 | 1001.66 | 1000.45 | 999.03 | 997.41 | 995.56 | 1.022 | 0.9074 | 0.8127 | 0.7338 | 0.6662
m1 = 0.09871 | 1002.29 | 1001.09 | 999.67 | 998.05 | 996.21 | 1.026 | 0.9109 | 0.8158 | 0.7364 | 0.6686
m1 = 0.1154 | 1003.05 | 1001.8 | 1000.33 | 998.71 | 996.84 | 1.029 | 0.9144 | 0.8192 | 0.7395 | 0.6713
m1 = 0.1321 | 1003.75 | 1002.51 | 1001.03 | 999.39 | 997.49 | 1.033 | 0.9178 | 0.8225 | 0.742 | 0.6742

O [water] + O=C(O)c1cccnc1
m2 = 0
Settings | viscosity [mPa·s]
293.15 K | 1.003
298.15 K | 0.8904
303.15 K | 0.7973
308.15 K | 0.7194
313.15 K | 0.653
